In US20230295130A1, “COMPOUND USEFUL AS CDK7 KINASE INHIBITOR AND USE THEREOF” (TYK MEDICINES, INC., priority 2020, published 2023):

What was measured:
[1] = system: breast cancer cells MDA-MB 231; assay: Cell anti-proliferation experiment, MTT (Table 4); type: cell-based, human; details: incubate 3 days
Source text: (§1) Human breast cancer cells MDA-MB 231, MDA-MB453, ovarian cancer cells OVCAR3, colorectal cancer cells HCT-116 and lung cancer cells NCI-H209 were purchased from BNCC. DMEM medium (Bio-Channel), DMSO (dimethyl sulfoxide), MTT (thiazole blue), 0.25% EDTA-Tripsin (pancreatin digestive juice), 1×PBS (phosphate buffer, PH7.2), 96-well plate (Corning), fetal bovine serum (FBS), 10,000 U/mL penicillin-G/streptomycin, high-speed freezing centrifuge (EPPENDORF 5810R), enzyme-linked immunosorbent assay (Tecan Spark).
(§2) • A) Tumor cells were cultured to 80-90% density in DMEM (high sugar, containing 10% FBS and 100 U/mL penicillin-G/streptomycin) at 37° C., 5% CO2 and saturated humidity. • B) The culture medium was removed from the 10 cm culture dish. • C) Cells were washed with 10 ml 1×PBS. • D) 4 ml of 0.25% EDTA-Tripsin was added to an incubator to digest pancreatin for 5 minutes at 37° C. and 5% CO2, transferred to a 15 ml centrifuge tube, centrifuged for 5 minutes at 200 g, and supernatant was discarded to obtain cell precipitation. • E) The cell precipitation was resuspended with 4 ml DMEM medium, counted and adjusted to 50,000 cells/ml. • F) Cell suspension was added to a 96-well plate with a volume of 100 μL per well and cultured overnight in a 5% CO2 incubator at 37° C.
(§3) • A) Preparing the tested compound gradient dilution solution: TY 2600 1 mM, TY 2601 1 mM, TY-2648a 1 mM, TY-2648b 1 mM and TY-2650 1 mM storage solutions were prepared. Then 1.5 μl of storage solution was dissolved in 1.5 ml of DMSO-free culture solution, and then performed 3-fold continuous gradient dilution with 0.1% DMSO culture solution for a total of 9 concentrations. The concentrations of the diluted compound were as follows: • 333.33 nM, 111.11 nM, 37.03 nM, 12.35 nM, 4.15 nM, 1.37 nM, 0.46 nM, 0.15 nM • B) After full mixing, 100 μL of culture compound solution was taken to replace the culture solution in the cell culture plate, with 4 duplicated wells at each concentration; • C) The cells were transferred to incubator to incubate for 3 days.
(§4) • A) The cell culture plate was taken out and added with 5 mg/ml MTT 10 μL in the biosafety cabinet; • B) The cell culture plate was put back into the incubator and continued to incubate for 3 hours; • C) The cell culture plate was taken out to remove the culture solution, 100 μL isopropanol (containing 0.4 mM HCl, 0.1% NP-40) was added, shaking at room temperature for 30 minutes; • D) The absorbance value was measured at 570 nm on TECAN enzyme linked immunosorbent assay.

[2] = system: breast cancer cells MDA-MB453; assay: Cell anti-proliferation experiment, MTT (Table 4); type: cell-based, human; details: incubate 3 days
Source text: as §1, §2, §3, §4

[3] = system: ovarian cancer cells OVCAR3; assay: Cell anti-proliferation experiment, MTT (Table 4); type: cell-based, human; details: incubate 3 days
Source text: as §1, §2, §3, §4

[4] = system: colorectal cancer cells HCT-116; assay: Cell anti-proliferation experiment, MTT (Table 4); type: cell-based, human; details: incubate 3 days
Source text: as §1, §2, §3, §4

[5] = biological target: CDK7/Cyclin H/MAT1 kinase (Homo sapiens (Human), UniProt P50613); assay: Enzyme activity test, mobility shift assay (Table 3); type: biochemical; details: 2 mM ATP, pre-incubated 0 and 60 minutes
CDK7/Cyclin H/MAT1 kinase, sequence (P50613 whole entry): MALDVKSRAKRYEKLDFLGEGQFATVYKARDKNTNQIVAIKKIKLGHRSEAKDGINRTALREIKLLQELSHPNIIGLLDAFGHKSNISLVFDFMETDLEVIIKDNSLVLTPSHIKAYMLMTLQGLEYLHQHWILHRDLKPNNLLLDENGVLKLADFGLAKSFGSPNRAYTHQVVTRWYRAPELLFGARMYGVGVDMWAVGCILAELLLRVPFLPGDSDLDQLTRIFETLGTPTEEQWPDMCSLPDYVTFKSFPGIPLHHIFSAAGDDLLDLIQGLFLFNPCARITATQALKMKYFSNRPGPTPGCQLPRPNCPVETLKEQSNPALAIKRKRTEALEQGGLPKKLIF
CDK7/Cyclin H/MAT1 kinase, sequence (P51946 whole entry partner): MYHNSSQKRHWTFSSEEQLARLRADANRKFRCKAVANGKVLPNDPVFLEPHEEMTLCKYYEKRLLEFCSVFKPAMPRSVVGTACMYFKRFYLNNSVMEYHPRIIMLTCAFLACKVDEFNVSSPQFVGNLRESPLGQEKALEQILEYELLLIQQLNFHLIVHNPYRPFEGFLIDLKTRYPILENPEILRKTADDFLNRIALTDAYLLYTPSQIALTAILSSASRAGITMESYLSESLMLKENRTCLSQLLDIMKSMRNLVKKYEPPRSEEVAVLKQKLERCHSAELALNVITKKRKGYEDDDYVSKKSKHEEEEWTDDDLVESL
CDK7/Cyclin H/MAT1 kinase, sequence (P51948 whole entry partner): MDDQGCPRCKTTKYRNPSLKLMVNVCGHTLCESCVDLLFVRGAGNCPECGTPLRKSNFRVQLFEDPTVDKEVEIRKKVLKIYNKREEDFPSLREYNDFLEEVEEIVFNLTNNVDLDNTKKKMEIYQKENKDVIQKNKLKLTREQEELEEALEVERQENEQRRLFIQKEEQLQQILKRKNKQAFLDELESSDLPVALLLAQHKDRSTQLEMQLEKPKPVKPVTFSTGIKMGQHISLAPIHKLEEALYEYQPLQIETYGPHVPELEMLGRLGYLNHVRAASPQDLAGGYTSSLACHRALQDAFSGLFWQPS
Protocol: IC50 values of the compounds for CDK7 kinase were detected in Wuxi Biortus Biosciences Co. Ltd.
The compound powder was dissolved in 100% DMSO to prepare a 10 mM storage solution. The storage solution was further diluted to 0.5 mM as the initial concentration, and continuously diluted 3 times to obtain 10 compound solutions with different concentrations. The compound and enzyme were pre-incubated for 0 minutes and 60 minutes, respectively, using duplicate detection.
was used as a positive control, using Mobility shift say method, to detect CDK kinase (such as CDK7, CDK9, CDK12 and CDK2) activity of the compound.

IC50 ([1]; Homo sapiens, MDA-MB-231, 72 h)	IC50 ([2]; Homo sapiens, MDA-MB-453, 72 h)	IC50 ([3]; Homo sapiens, OVCAR-3, 72 h)	IC50 ([4]; Homo sapiens, HCT-116, 72 h)	IC50 [5]	IC50 [1]	IC50 [2]	IC50 [3]	IC50 [4]	SMILES
10 to 500 nM	10 to 500 nM	10 to 500 nM	10 to 500 nM	< 10 nM					CC1(C)CC[C@H](Nc2ncc(C(F)(F)F)c(-c3c[nH]c4c(P5(=O)CCCC5)c(C#N)ccc34)n2)CN1 [Example 01]
10 to 500 nM	10 to 500 nM	10 to 500 nM	10 to 500 nM	< 10 nM					CC1(C)CC[C@H](Nc2ncc(C(F)(F)F)c(-c3c[nH]c4c(P5(=O)CCCC5)nccc34)n2)CN1 [Example 14]
10 to 500 nM	10 to 500 nM	10 to 500 nM	10 to 500 nM	< 10 nM					COC(=O)Nc1ccc2c(-c3nc(N[C@H]4CCC(C)(C)NC4)ncc3C(F)(F)F)c[nH]c2c1P1(=O)CCCC1 [Example 20]
				< 10 nM	10 to 500 nM	10 to 500 nM	10 to 500 nM	10 to 500 nM	CC1(C)CC[C@H](Nc2ncc(C(F)(F)F)c(-n3cnc4c(P(C)(C)=O)c(C#N)ccc43)n2)CN1 [Example 31]
